Values joined by “and” are separate entries in the source; they are usually repeats but may differ in a detail not shown here. Identical values can stand only once. Like-named read-outs stand apart in the source and are kept apart here.
How the values were obtained:
[1] = biological target: C. elegans (N2) complex I (NADH:ubiquinone oxidoreductase) (Caenorhabditis elegans, UniProt P24887+Q93873+Q94360); test: biochemical; assay type: biochemical
In short: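 Mitochondria, 0.2 mg/mL protein, freeze-thawed three times, assayed in 25 mM KPi pH 7.5 with BSA, 80 μM NADH, 60 μM decylubiquinone, 160 μM DCIP, antimycin A and KCN. Rate from initial linear slope of A600 over 15 min. % of solvent control.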

L1 wild-type C. elegans [2] = settings: for Screen "Hit": hit = relative motility below 0.25 3 hours after removal of KCN
L1 wild-type C. elegans [3] = test: microbe, parasite or virus in culture; settings: Caenorhabditis elegans, read-out: C. elegans KCN Survival Assay LC50, estimated from fitted dose-response curves; mean of at least two biological replicates
[4] = read-out: C. elegans mitochondrial complex I activity
[5] = Dose 0.2 µM, mean of at least three biological replicates
[6] = wild-type C. elegans, mean of replicates, read-out: in vitro complex I activity relative to solvent control, Mean
[7] = wild-type C. elegans, single replicate, read-out: in vitro complex I activity relative to solvent control, individual replicate

Chain of C. elegans (N2) complex I (NADH:ubiquinone oxidoreductase) (Q94360 17-199): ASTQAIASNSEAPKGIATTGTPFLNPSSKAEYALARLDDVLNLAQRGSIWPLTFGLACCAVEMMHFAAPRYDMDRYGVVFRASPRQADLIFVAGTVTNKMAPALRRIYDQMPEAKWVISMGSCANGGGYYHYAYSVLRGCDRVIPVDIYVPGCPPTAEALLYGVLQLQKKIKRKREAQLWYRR
Chain of C. elegans (N2) complex I (NADH:ubiquinone oxidoreductase) (P24887 whole entry): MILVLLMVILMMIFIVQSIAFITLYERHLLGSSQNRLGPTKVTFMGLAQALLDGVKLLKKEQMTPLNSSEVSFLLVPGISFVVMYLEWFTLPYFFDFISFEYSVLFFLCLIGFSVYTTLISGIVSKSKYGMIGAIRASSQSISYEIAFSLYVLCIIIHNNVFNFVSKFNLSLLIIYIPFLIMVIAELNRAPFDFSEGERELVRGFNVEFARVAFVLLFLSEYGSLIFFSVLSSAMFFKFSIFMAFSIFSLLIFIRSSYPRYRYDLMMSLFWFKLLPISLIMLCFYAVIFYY
Chain of C. elegans (N2) complex I (NADH:ubiquinone oxidoreductase) (Q93873 31-482): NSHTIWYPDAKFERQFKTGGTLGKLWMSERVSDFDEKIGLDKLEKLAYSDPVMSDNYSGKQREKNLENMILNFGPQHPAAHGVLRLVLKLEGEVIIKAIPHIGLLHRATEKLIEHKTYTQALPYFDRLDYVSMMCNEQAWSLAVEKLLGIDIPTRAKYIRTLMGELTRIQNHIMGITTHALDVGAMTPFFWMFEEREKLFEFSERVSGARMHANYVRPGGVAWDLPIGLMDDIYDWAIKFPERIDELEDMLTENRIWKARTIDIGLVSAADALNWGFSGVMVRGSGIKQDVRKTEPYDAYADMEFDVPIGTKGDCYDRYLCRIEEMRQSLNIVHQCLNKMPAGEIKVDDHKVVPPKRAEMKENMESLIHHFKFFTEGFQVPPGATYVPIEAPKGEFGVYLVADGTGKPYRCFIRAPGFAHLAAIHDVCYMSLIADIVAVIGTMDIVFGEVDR

Structure (SMILES): CCCn1c(COc2ccc(C)cc2)nc2ccccc21 [Compound 6944471]
- activity at 0.0001 µM [1, 4]: 95.2%
- activity at 0.0005 µM [1, 4]: 103%
- activity at 0.001 µM [1, 4]: 96.6%
- activity at 0.0025 µM [1, 4]: 100%
- activity at 0.005 µM [1, 4]: 90.8%
- activity at 0.013 µM [1, 4]: 108%
- activity at 0.025 µM [1, 4]: 106%
- activity at 0.063 µM [1, 4]: 111%
- activity at 0.125 µM [1, 4]: 123%
- activity at 0.313 µM [1, 4]: 103%
- activity at 0.625 µM [1, 4]: 113%
- activity at 1.5 µM [1, 4]: 107%
- activity at 3 µM [1, 4]: 96.1%
- activity at […] ([1]; Dose 7.5 µM, read-out: C. elegans mitochondrial complex I activity): 108%
- activity at 15 µM [1, 4]: 88.5%
- activity at 37.5 µM [1, 4]: 89.5%
- activity at 75 µM [1, 4]: 64.7%
- IC50 ([1]; wild-type C. elegans mitochondria, estimated from fitted dose-response curves, read-out: C. elegans Complex I IC50): > 75000 nM
- Screen "Hit" (L1 wild-type C. elegans [2]; 50 μM, […]): Y (hits were identified as compounds that reduced relative motility below 0.25 (75% reduction))
- Relative Motility (L1 wild-type C. elegans [2]; 50 μM, […], worm motility 3 hours after removal of KCN, relative to DMSO controls, single biological replicate): 0.170
- C. elegans KCN Survival (L1 wild-type C. elegans [2]; [5]): 0.888
- C. elegans KCN Survival (L1 wild-type C. elegans [2]; Dose 0.39 µM): 0.949
- C. elegans KCN Survival (L1 wild-type C. elegans [2]; Dose 1.56 µM): 1.451
- C. elegans KCN Survival (L1 wild-type C. elegans [2]; Dose 3.13 µM): 0.820
- C. elegans KCN Survival (L1 wild-type C. elegans [2]; Dose 6.25 µM): 0.671
- C. elegans KCN Survival (L1 wild-type C. elegans [2]; Dose 12.5 µM): 0.270
- C. elegans KCN Survival (L1 wild-type C. elegans [2]; Dose 25 µM): 0.341
- C. elegans KCN Survival (L1 wild-type C. elegans [2]; Dose 50 µM): 0.000
- C. elegans KCN Survival (L1 wild-type C. elegans [2]; Dose 100 µM): 0.000
- LC50 (L1 wild-type C. elegans [3]): 10600 nM

Structure (SMILES): Cc1nc2ccccc2n1CCOc1ccccc1Cl [Compound 5561642]
- activity at 0.0001 µM [1, 4]: 91.5%
- activity at 0.0005 µM [1, 4]: 94%
- activity at 0.001 µM [1, 4]: 89.2%
- activity at 0.0025 µM [1, 4]: 95%
- activity at 0.005 µM [1, 4]: 93.1%
- activity at 0.013 µM [1, 4]: 84.7%
- activity at 0.025 µM [1, 4]: 83.1%
- activity at 0.063 µM [1, 4]: 81.1%
- activity at 0.125 µM [1, 4]: 84.1%
- activity at 0.313 µM [1, 4]: 65.5%
- activity at 0.625 µM [1, 4]: 71.7%
- activity at 1.5 µM [1, 4]: 51.9%
- activity at 3 µM [1, 4]: 40.7%
- activity at 15 µM [1, 4]: 12.4%
- activity at 37.5 µM [1, 4]: 4.46%
- activity at 75 µM [1, 4]: 4.41%
- IC50 ([1]; in vitro complex I dose response on C. elegans mitochondria, average of at least two biological replicates, fit in R (DRC), read-out: IC50 C. elegans complex I): 2350 nM
- Log IC50 C. elegans complex I ([1]; log10 of IC50 in µM, C. elegans mitochondria): 0.37 µM
- IC50 ([1]; wild-type C. elegans mitochondria, read-out: C. elegans Complex I IC50): 2350 nM
- Screen "Hit" (L1 wild-type C. elegans [2]; 50 μM, […]): Y (hits were identified as compounds that reduced relative motility below 0.25 (75% reduction))
- C. elegans KCN Survival (L1 wild-type C. elegans [2]; [5]): 0.982
- C. elegans KCN Survival (L1 wild-type C. elegans [2]; Dose 0.39 µM): 1.047
- C. elegans KCN Survival (L1 wild-type C. elegans [2]; Dose 1.56 µM): 0.991
- C. elegans KCN Survival (L1 wild-type C. elegans [2]; Dose 3.13 µM): 0.985
- C. elegans KCN Survival (L1 wild-type C. elegans [2]; Dose 6.25 µM): 0.849
- C. elegans KCN Survival (L1 wild-type C. elegans [2]; Dose 12.5 µM): 0.500
- C. elegans KCN Survival (L1 wild-type C. elegans [2]; Dose 25 µM): 0.148
- C. elegans KCN Survival (L1 wild-type C. elegans [2]; Dose 50 µM): 0.182
- LC50 (L1 wild-type C. elegans [3]): 11700 nM

Structure (SMILES): C=C(C)[C@H]1Cc2c(ccc3c2O[C@@H]2COc4cc(OC)c(OC)cc4[C@@H]2C3=O)O1 [Rotenone, reference compound]
- activity at 100 µM ([1]; 100 µM compound, relative to solvent control, mean (SEM), read-out: % Activity Complex I): 0%
- activity at 100 µM ([1]; 100 μM inhibitor, in vitro activity relative to solvent control, N2 C. elegans mitochondria, single replicate, read-out: CI Activity): 0%
- activity at 100 µM ([1]; 100 μM of NPD compound, C. elegans mitochondria, individual biological replicates, read-out: Percent in vitro activity, Complex I (single replicate Rep1-Rep4)): 0%
- activity at 100 µM ([1]; 100 μM of NPD compound, C. elegans mitochondria, mean of four biological replicates, read-out: Percent in vitro activity, Complex I (Mean)): 0%
- Absorbance DCIP [600nm], complex I ([1]; 30 s, single replicate): 1.265 and 1.244 and 1.248
- Absorbance DCIP [600nm], complex I ([1]; 60 s, single replicate): 1.261 and 1.240 and 1.243
- Absorbance DCIP [600nm], complex I ([1]; 90 s, single replicate): 1.257 and 1.236 and 1.240
- Absorbance DCIP [600nm], complex I ([1]; 120 s, single replicate): 1.252 and 1.232 and 1.237
- Absorbance DCIP [600nm], complex I ([1]; 150 s, single replicate): 1.248 and 1.229 and 1.234
- Absorbance DCIP [600nm], complex I ([1]; 180 s, single replicate): 1.244 and 1.226 and 1.230
- Absorbance DCIP [600nm], complex I ([1]; 210 s, single replicate): 1.240 and 1.223 and 1.227
- Absorbance DCIP [600nm], complex I ([1]; 240 s, single replicate): 1.237 and 1.219 and 1.223
- Absorbance DCIP [600nm], complex I ([1]; 270 s, single replicate): 1.233 and 1.216 and 1.220 and 1.199
- Absorbance DCIP [600nm], complex I ([1]; 300 s, single replicate): 1.229 and 1.212 and 1.216 and 1.196
- Absorbance DCIP [600nm], complex I ([1]; 330 s, single replicate): 1.225 and 1.209 and 1.213 and 1.193
- Absorbance DCIP [600nm], complex I ([1]; 360 s, single replicate): 1.221 and 1.206 and 1.210 and 1.190
- Absorbance DCIP [600nm], complex I ([1]; 390 s, single replicate): 1.218 and 1.203 and 1.206 and 1.187
- Absorbance DCIP [600nm], complex I ([1]; 420 s, single replicate): 1.214 and 1.199 and 1.203 and 1.185
- Absorbance DCIP [600nm], complex I ([1]; 450 s, single replicate): 1.210 and 1.196 and 1.200 and 1.182
- Absorbance DCIP [600nm], complex I ([1]; 480 s, single replicate): 1.206 and 1.193 and 1.197 and 1.179
- Absorbance DCIP [600nm], complex I ([1]; 510 s, single replicate): 1.203 and 1.190 and 1.193 and 1.176
- Absorbance DCIP [600nm], complex I ([1]; 540 s, single replicate): 1.199 and 1.187 and 1.190 and 1.174
- Absorbance DCIP [600nm], complex I ([1]; 570 s, single replicate): 1.195 and 1.183 and 1.187
- Absorbance DCIP [600nm], complex I ([1]; 600 s, single replicate): 1.192 and 1.180 and 1.184
- Absorbance DCIP [600nm], complex I ([1]; 630 s, single replicate): 1.188 and 1.177 and 1.181
- Absorbance DCIP [600nm], complex I ([1]; 660 s, single replicate): 1.185 and 1.174 and 1.177
- Absorbance DCIP [600nm], complex I ([1]; 690 s, single replicate): 1.181 and 1.171 and 1.174
- Absorbance DCIP [600nm], complex I ([1]; 720 s, single replicate): 1.178 and 1.168 and 1.171
- Absorbance DCIP [600nm], complex I ([1]; 750 s, single replicate): 1.174 and 1.164 and 1.168
- Absorbance DCIP [600nm], complex I ([1]; 780 s, single replicate): 1.171 and 1.161 and 1.165
- Absorbance DCIP [600nm], complex I ([1]; 810 s, single replicate): 1.167 and 1.158 and 1.162
- Absorbance DCIP [600nm], complex I ([1]; 840 s, single replicate): 1.164 and 1.155 and 1.159
- Absorbance DCIP [600nm], complex I ([1]; 870 s, single replicate): 1.161 and 1.152 and 1.156
- Absorbance DCIP [600nm], complex I ([1]; 900 s, single replicate): 1.157 and 1.149 and 1.153
- remaining activity at 0.0001 µM [1, 6]: 95.7%
- remaining activity at 0.0001 µM [1, 7]: 90.6%
- remaining activity at 0.0005 µM [1, 6]: 104%
- remaining activity at 0.0005 µM [1, 7]: 108%
- remaining activity at 0.001 µM ([1]; dose 0.001 µM, wild-type C. elegans, mean of replicates, read-out: in vitro complex I activity relative to solvent control, Mean): 104%
- remaining activity at 0.0025 µM [1, 6]: 110%
- remaining activity at 0.0025 µM [1, 7]: 108%
- remaining activity at 0.005 µM [1, 6]: 101%
- remaining activity at 0.005 µM [1, 7]: 97%
- remaining activity at 0.013 µM [1, 6]: 90.6%
- remaining activity at 0.013 µM [1, 7]: 89.2%
- remaining activity at 0.025 µM ([1]; dose 0.025 µM, wild-type C. elegans, mean of replicates, read-out: in vitro complex I activity relative to solvent control, Mean): 89.6%
- remaining activity at 0.063 µM [1, 6]: 27%
- remaining activity at 0.063 µM [1, 7]: 21.5%
- remaining activity at 0.125 µM [1, 6]: 26.8%
- remaining activity at 0.125 µM [1, 7]: 17.8%
- remaining activity at 0.313 µM ([1]; dose 0.313 µM, wild-type C. elegans, mean of replicates, read-out: in vitro complex I activity relative to solvent control, Mean): 0.682%
- remaining activity at 0.625 µM ([1]; dose 0.625 µM, wild-type C. elegans, mean of replicates, read-out: in vitro complex I activity relative to solvent control, Mean): 0.888%
- remaining activity at 1.5 µM ([1]; dose 1.5 µM, wild-type C. elegans, mean of replicates, read-out: in vitro complex I activity relative to solvent control, Mean): 7.71%
- remaining activity at 3 µM ([1]; dose 3 µM, wild-type C. elegans, mean of replicates, read-out: in vitro complex I activity relative to solvent control, Mean): 5.32%
- remaining activity at 15 µM ([1]; dose 15 µM, wild-type C. elegans, mean of replicates, read-out: in vitro complex I activity relative to solvent control, Mean): 5.62%
- remaining activity at 37.5 µM ([1]; dose 37.5 µM, wild-type C. elegans, mean of replicates, read-out: in vitro complex I activity relative to solvent control, Mean): 6.72%
- remaining activity at 75 µM ([1]; dose 75 µM, wild-type C. elegans, mean of replicates, read-out: in vitro complex I activity relative to solvent control, Mean): 3.64%
- IC50 ([1]; wild-type (N2) mitochondria, read-out: C. elegans Complex I IC50): 45 nM
- LC50 (L1 wild-type C. elegans [2]; N2 (wild type), caenorhabditis elegans): 860 nM
